Experimental findings from patent publication US20240208994A1, “PLASMA KALLIKREIN INHIBITORS” (Merck Sharp & Dohme LLC, priority 2021, published 2024) are described below.

The structures appear in SMILES notation.

One assay addresses human factor XIa (Homo sapiens, UniProt P03951). The assay can be described thus: Factor XIa Assay. It counts as biochemical. The note with it: human factor XIa 0.04 nM, 30 min pre-incubation at 25° C., substrate GPR-AFC, pH 7.4, 60 min incubation; read-out: FXIa IC50.
In a further assay the target is T1, Human plasma kallikrein (Homo sapiens, UniProt P03952).
T1 construct: yields a heavy chain (371 amino acids) and a light chain (248 amino acids); purchased Enzyme Research Laboratories
T1 sequence (P03952 391-638 limits assumed): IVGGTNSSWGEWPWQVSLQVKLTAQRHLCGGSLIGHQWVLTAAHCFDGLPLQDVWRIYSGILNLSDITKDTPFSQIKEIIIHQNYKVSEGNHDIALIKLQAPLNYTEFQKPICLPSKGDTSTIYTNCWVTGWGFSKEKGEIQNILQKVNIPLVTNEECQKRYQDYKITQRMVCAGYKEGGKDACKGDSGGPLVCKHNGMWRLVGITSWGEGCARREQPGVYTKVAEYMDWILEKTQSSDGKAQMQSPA
T1 sequence (P03952 20-390 partner limits assumed): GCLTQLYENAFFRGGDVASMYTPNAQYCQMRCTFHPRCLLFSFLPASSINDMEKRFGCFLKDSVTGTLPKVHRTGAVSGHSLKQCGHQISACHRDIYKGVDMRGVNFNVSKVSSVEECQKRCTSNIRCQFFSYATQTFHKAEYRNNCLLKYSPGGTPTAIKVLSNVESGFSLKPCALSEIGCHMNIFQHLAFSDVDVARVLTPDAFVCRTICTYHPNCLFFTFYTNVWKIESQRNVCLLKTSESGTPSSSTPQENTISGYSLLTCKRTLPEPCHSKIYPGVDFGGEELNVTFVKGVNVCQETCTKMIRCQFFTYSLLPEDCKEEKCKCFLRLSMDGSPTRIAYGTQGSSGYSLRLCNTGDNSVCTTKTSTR
The experiment in a line: Plasma Kallikrein Assay. Type of assay: biochemical. To be noted: purified Human plasma kallikrein 0.5 nM, substrate Acetyl-K-P-R-AFC, HEPES pH 7.4, fluorescence 405 Ex/510 Em; read-out: PKal IC50. The method in brief:
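Purified human plasma kallikrein (0.5 nM) with fluorogenic Acetyl-K-P-R-AFC at ≤0.2 Km in pH 7.4 HEPES with NaCl, CaCl2 and PEG 8000, after enzyme–inhibitor equilibration. Fluorescence read at 405/510 nm under linear conditions. IC50 from four-parameter fit; Ki by Cheng-Prusoff.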

Chain of human factor XIa (P03951 388-625 limits assumed): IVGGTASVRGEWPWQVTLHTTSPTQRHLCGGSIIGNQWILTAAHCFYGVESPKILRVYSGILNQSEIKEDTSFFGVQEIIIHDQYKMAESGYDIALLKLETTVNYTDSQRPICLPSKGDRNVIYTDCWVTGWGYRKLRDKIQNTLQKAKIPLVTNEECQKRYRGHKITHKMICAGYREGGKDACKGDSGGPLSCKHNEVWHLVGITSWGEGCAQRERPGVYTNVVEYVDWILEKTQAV
Chain of human factor XIa (P03951 19-387 partner limits assumed): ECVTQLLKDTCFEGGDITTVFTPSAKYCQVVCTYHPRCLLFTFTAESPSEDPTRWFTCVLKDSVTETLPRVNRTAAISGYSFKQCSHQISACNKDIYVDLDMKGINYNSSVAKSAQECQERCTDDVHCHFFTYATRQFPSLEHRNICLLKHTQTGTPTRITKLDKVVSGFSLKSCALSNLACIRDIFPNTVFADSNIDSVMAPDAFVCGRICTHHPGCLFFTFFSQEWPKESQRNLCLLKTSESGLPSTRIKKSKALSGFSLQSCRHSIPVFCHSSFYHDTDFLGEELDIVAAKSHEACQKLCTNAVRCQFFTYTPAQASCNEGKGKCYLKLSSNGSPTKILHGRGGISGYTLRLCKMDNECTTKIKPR

On to `COc1cccc(-c2cc(N)n(CC(=O)N3CC[C@@]4(C3)OC(=O)Nc3ccc(Cl)c(F)c34)n2)c1` [Example 8, (R)-1′-(2-(5-Amino-3-(3-methoxyphenyl)-1H-pyrazol-1-yl)acetyl)-6-chloro-5-fluorospiro[benzo[d][1,3]oxazine-4,3′-pyrrolidin]-2(1H)-one], for which the IC50 – broadly, the concentration that gives 50% inhibition – at human factor XIa is 679 nM; on Human plasma kallikrein, 11.8 nM.
`Nc1c(Cl)c(-c2ncc(F)cc2F)nn1CC(=O)N1CC[C@@]2(C1)OC(=O)Nc1ccc(Cl)c(F)c12` [Example 31, (R)-1′-(2-(5-Amino-4-chloro-3-(3,5-difluoropyridin-2-y1)-1H-pyrazol-1-yl)acetyl)-6-chloro-5-fluorospiro[benzo[d][1,3]oxazine-4,3′-pyrrolidin]-2(1H)-one]: the values for the 50% inhibitory concentration (IC50) at human factor XIa and on Human plasma kallikrein were 1830 nM and 32.1 nM, respectively.
In the same order, the values of `Nc1cc(-c2ccccc2)nn1CC(=O)N1CCC[C@@]2(C1)OC(=O)Nc1ccc(Cl)c(F)c12` [Example 23, (R)-1′-(2-(5-Amino-3-phenyl-1H-pyrazol-1-yl)acetyl)-6-chloro-5-fluorospiro[benzo[d][1,3]oxazine-4,3′-piperidin]-2(1H)-one] are 1790 nM and 11.8 nM.
On the same counts, the results for `Nc1cc(-c2cccc(F)c2)nn1CC(=O)N1CC[C@@]2(C1)OC(=O)Nc1ccc(Cl)c(F)c12` [Example 64, (R)-1′-(2-(5-Amino-3-(3-fluorophenyl)-1H-pyrazol-1-yl)acetyl)-6-chloro-5-fluorospiro[benzo[d] [1,3]oxazine-4,3′-pyrrolidin]-2(1H)-one] are 556 nM and 17 nM.
In the same order, the values of `Nc1cc(-c2ccc(Cl)cc2)nn1CC(=O)N1CC[C@@]2(C1)OC(=O)Nc1ccc(Cl)c(F)c12` [Example 65, (R)-1′-(2-(5-Amino-3-(4-chlorophenyl)-1H-pyrazol-1-yl)acetyl)-6-chloro-5-fluorospiro[benzo[d] [1,3]oxazine-4,3′-pyrrolidin]-2(1H)-one] are 1560 nM and 21.9 nM.
Consider `Nc1cc(-c2ncccc2F)nn1CC(=O)N1CCC[C@@]2(C1)OC(=O)Nc1ccc(Cl)c(F)c12` [Example 36, (R)-1′-(2-(5-Amino-3-(3-fluoropyridin-2-y1)-1H-pyrazol-1-yl)acetyl)-6-chloro-5-fluorospiro [benzo[d][1,3]oxazine-4,3′-piperidin]-2(1H)-one], for which the figures for the concentration for half-maximal inhibition (IC50) on human factor XIa and on Human plasma kallikrein were 826 nM and 8.4 nM, respectively.
On the same counts, the results for `Nc1cc(-c2nccs2)nn1CC(=O)N1CC[C@@]2(C1)OC(=O)Nc1ccc(Cl)c(F)c12` [Example 41, (R)-1′-(2-(5-Amino-3-(thiazol-2-y1)-1H-pyrazol-1-yl)acetyl)-6-chloro-5-fluorospiro[benzo[d] [1,3]oxazine-4,3′-pyrrolidin]-2(1H)-one] are 286 nM and 18.1 nM.
In the same order, the values of `Nc1cc(C2CC2)nn1CC(=O)N1CC[C@@]2(C1)OC(=O)Nc1ccc(Cl)c(F)c12` [Example 10] are 506 nM and 27.4 nM.
On the same counts, the results for `Nc1cc(-c2cc3ccccc3o2)nn1CC(=O)N1CC[C@@]2(C1)OC(=O)Nc1ccc(Cl)c(F)c12` [Example 48, (R)-1′-(2-(5-Amino-3-(benzofuran-2-y1)-1H-pyrazol-1-yl)acetyl)-6-chloro-5-fluorospiro[benzo[d][1,3]oxazine-4,3′-pyrrolidin]-2(1H)-one] are 1400 nM and 7.8 nM.
As to `Nc1cc(-c2cccc(Cl)c2)nn1CC(=O)N1CCC[C@@]2(C1)OC(=O)Nc1ccc(Cl)c(F)c12` [Example 16, (R)-1′-(2-(5-Amino-3-(3-chlorophenyl)-1H-pyrazol-1-yl)acetyl)-6-chloro-5-fluorospiro[benzo[d][1,3]oxazine-4,3′-piperidin]-2(1H)-one], the half-maximal inhibitory concentration (IC50) is 2820 nM at human factor XIa and 20.4 nM on Human plasma kallikrein.
In the case of `Nc1cc(C2CC(F)(F)C2)nn1CC(=O)N1CC[C@@]2(C1)OC(=O)Nc1ccc(Cl)c(F)c12` [Example 11, (R)-1′-(2-(5-Amino-3-(3,3-difluorocyclobutyl)-1H-pyrazol-1-yl)acetyl)-6-chloro-5-fluorospiro[benzo[d][1,3]oxazine-4,3′-pyrrolidin]-2(1H)-one], the IC50 amounted to 672 nM at human factor XIa and 32.3 nM on Human plasma kallikrein.
